Source: the supplement of paper PMC10307832

Experiments:
Experiment in all cases: relative viability (nuclei count vs DMSO), 5 days (fraction); higher = more cells survive
[1] = compound: COc1nc(N)nc2c1ncn2[C@@H]1O[C@H](CO)[C@@H](O)[C@@H]1O [Nelarabine] + CC1(C)CCC(c2ccc(Cl)cc2)=C(CN2CCN(c3ccc(C(=O)NS(=O)(=O)c4ccc(N[C@H](CCN5CCOCC5)CSc5ccccc5)c(S(=O)(=O)C(F)(F)F)c4)cc3)CC2)C1 [Navitoclax] (partner 0.5 µM)
Procedure, shortened: (§1)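 Relative viability divides the nuclei count in treated wells by that in vehicle wells. Lung cancer cell lines were seeded in 1536-well plates, dosed by pin tool the next day, and fixed and stained after 5 days in one step with final 0.05% Triton X-100, 1% formaldehyde and 1 ug/ml Hoechst. Dosing was a single drug or a fixed anchor-drug dose plus five library-drug doses (not always all listed) in √10 steps, and values are medians of duplicate plates imaged at 4×.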

[2] = compound: C=CCn1c(=O)c2cnc(Nc3ccc(N4CCN(C)CC4)cc3)nc2n1-c1cccc(C(C)(C)O)n1 [Adavosertib] + O=C(CCCCCCC(=O)Nc1ccccc1)NO [Vorinostat] (partner 1 µM)
Procedure, shortened: as §1

[3] = compound: C=CCn1c(=O)c2cnc(Nc3ccc(N4CCN(C)CC4)cc3)nc2n1-c1cccc(C(C)(C)O)n1 [Adavosertib] + COc1cc2c(Oc3ccc(NC(=O)C4(C(=O)Nc5ccc(F)cc5)CC4)cc3F)ccnc2cc1OCCCN1CCOCC1 [Foretinib] (partner 0.25 µM)
Procedure, shortened: as §1

[4] = compound: COc1nc(N)nc2c1ncn2[C@@H]1O[C@H](CO)[C@@H](O)[C@@H]1O [Nelarabine] + CC(=O)Nc1cccc(-n2c(=O)n(C3CC3)c(=O)c3c(Nc4ccc(I)cc4F)n(C)c(=O)c(C)c32)c1 [Trametinib] (partner 0.02 µM)
Procedure, shortened: as §1

Row | Cell Line | relative viability ([1]; first compound 0.01 µM) | relative viability ([1]; first compound 0.03162 µM) | relative viability ([1]; first compound 0.1 µM) | relative viability ([1]; first compound 0.3162 µM) | relative viability ([1]; first compound 1 µM) | relative viability ([2]; first compound 0.01 µM) | relative viability ([2]; first compound 0.03162 µM) | relative viability ([2]; first compound 0.1 µM) | relative viability ([2]; first compound 0.3162 µM) | relative viability ([3]; first compound 0.01 µM) | relative viability ([3]; first compound 0.03162 µM) | relative viability ([3]; first compound 0.1 µM) | relative viability ([3]; first compound 0.3162 µM) | relative viability ([4]; first compound 0.01 µM) | relative viability ([4]; first compound 0.03162 µM) | relative viability ([4]; first compound 0.1 µM) | relative viability ([4]; first compound 0.3162 µM) | relative viability ([4]; first compound 1 µM)
1 | HOP-62 | 1.25 | 1 | 1.06 | 1.08 | 1.11 | 0.689 | 0.653 | 0.733 | 0.62 | 1.09 | 1.23 | 1.15 | 1.34 | 0.47 | 0.516 | 0.369 | 0.36 | 0.408
2 | NCI-H2228 | 1.3 | 1.11 |  | 1.33 | 0.722 |  | 0.606 | 0.536 | 0.294 | 0.837 | 1.15 | 0.686 | 0.472 | 0.575 | 0.469 | 0.29 | 0.55 | 0.668
3 | SK-MES-1 | 1.36 | 1.55 | 1.13 | 1.09 | 1.29 | 1.09 | 1.06 | 0.778 | 0.348 | 1.02 | 0.924 | 0.866 | 0.731 | 0.56 | 0.567 | 0.57 | 0.555 | 0.615
4 | NCI-H1755 | 1.06 | 0.846 | 0.555 | 1.14 | 1.03 | 0.935 | 0.864 | 0.682 | 0.546 | 0.881 | 0.893 | 0.912 | 0.918 | 0.852 | 0.777 | 0.753 | 0.692 | 0.836
5 | NCI-H2126 | 0.869 | 0.748 | 0.786 | 0.816 | 0.743 | 0.738 | 0.759 | 0.781 | 0.789 | 1.27 | 1.22 | 1.15 | 1.16 | 0.666 | 0.612 | 0.599 | 0.52 | 0.538
6 | NCI-H596 | 0.986 | 1.13 | 0.959 | 1.04 | 0.994 | 0.691 | 0.637 | 0.613 | 0.415 | 1.01 | 1.03 | 0.87 | 0.755 | 0.912 | 0.861 | 0.783 | 0.907 | 0.834
7 | NCI-H1944 | 1.02 | 0.964 | 1.01 | 0.937 | 0.968 | 0.541 | 0.531 | 0.563 | 0.369 | 0.869 | 0.9 | 0.842 | 0.717 | 0.448 | 0.443 | 0.401 | 0.388 | 0.376
